Earlier results, collected in patent US20240207338A1, “KETAMINE AND CANNABIS FOR THE TREATMENT OF EMOTIONAL DISORDERS” (Progressive Therapeutics Inc, priority 2021, published 2024).

Structure (SMILES) | potency for use in anesthesia relative to R-(−)-ketamine (versus R-(−)-ketamine) | potency for use in anesthesia relative to ketamine (versus ketamine)
CN[C@]1(c2ccccc2Cl)CCCCC1=O [S-(+)-ketamine] | twice as potent | 
NC1(c2ccccc2Cl)CCCCC1=O (centres unmarked) [norketamine] |  | one third the potency
